According to patent US10921327B2, “Probes for quantitative imaging of thiols in various environments” (Baylor College of Medicine, priority 2014, dated 2021):

Columns and labels:
[1] = target: BSA (Bos taurus, UniProt P02769); assay: Reaction specificity of TQ Green: BSA; set-up: species or system bovine; conditions: 5 mM BSA, PBS pH 7.4
Description: For clarity, data points for TQ Green reaction with BSA, Cysteine, and PBS were offset by 0.1 units from each other on the y axis. Data points represent the absorbance of reaction mixtures of TQ Green (32 μM) with cysteine (100 μM, blue), BSA (5 mM, green), GSH (20 mM red) and water (black) in PBS (pH 7.4) at 480 nm, the maximum absorption wavelength for TQ Green.
Proteins containing free thiol groups may also react with TQ Green to affect the measurement of GSH levels. On average, the protein concentration inside cells is 3×10^6 molecules/μm^3, which corresponds to a concentration of 5 mM. Assuming there is one free thiol on each protein molecule, 5 mM of bovine serum albumin (BSA) solution should reasonably mimic intracellular proteins because a) BSA has a free thiol on its surface; and b) the molecular weight of BSA (65 kDa) is close to the average molecular weight of intracellular proteins (˜50 kDa). […] Through these experiments and analyses, Applicants can conclude that TQ Green has good specificity towards GSH under physiological conditions.

[2] = Solubility; type: physicochemical; conditions: PBS buffer, aqueous buffer
[3] = Log D in octanol-PBS (pH 7.4) biphasic system; type: physicochemical; conditions: octanol-PBS pH 7.4, read-out: Log D (pH = 7.4)
Description: To further understand TQ Green distribution between hydrophobic and hydrophilic environments, Applicants measured the Log D values of TQ Green and TQ Green-GSH using an octanol-PBS (pH 7.4) biphasic system (Table 2). […] In addition, Applicants discovered that the absorbance maximum of TQ Green shifts from 480 nm to 455 nm when changing the solvents from PBS to octanol. Applicants hypothesize that if TQ Green is distributed in lipid membranes, the absorbance maximum and fluorescence intensity will change. […] Consistent with the Log D measurements, this experiment also supports the hypothesis that TQ Green accumulates in lipid membranes. Considering the high quantum yield of TQ Green in hydrophobic solvents, lipid enrichment of TQ Green seemingly complicates intracellular GSH quantification. […] However, the Kd′ values may be different under calibration conditions and inside cells, which may introduce a systemic error.

Chain of BSA (P02769 25-607): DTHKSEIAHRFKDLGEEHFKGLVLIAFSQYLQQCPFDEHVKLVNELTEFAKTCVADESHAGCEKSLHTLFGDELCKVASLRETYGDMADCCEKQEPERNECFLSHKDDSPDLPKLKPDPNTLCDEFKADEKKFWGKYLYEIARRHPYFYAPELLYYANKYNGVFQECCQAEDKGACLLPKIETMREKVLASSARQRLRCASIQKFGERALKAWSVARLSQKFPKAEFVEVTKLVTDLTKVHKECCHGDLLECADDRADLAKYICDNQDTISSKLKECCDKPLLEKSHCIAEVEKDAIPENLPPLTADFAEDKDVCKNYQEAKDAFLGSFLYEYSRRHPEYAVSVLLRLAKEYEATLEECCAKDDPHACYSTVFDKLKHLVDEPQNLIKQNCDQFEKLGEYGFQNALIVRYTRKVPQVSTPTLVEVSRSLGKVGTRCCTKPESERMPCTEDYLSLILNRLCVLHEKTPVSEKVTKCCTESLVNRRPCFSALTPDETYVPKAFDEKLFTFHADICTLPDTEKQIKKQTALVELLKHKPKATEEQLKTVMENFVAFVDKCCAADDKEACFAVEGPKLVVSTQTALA

Reaction with BSA [1]: little reaction
solubility [2]: > 500 µM
logD [3]: 0.7
SMILES: CCN(CC)c1ccc2cc(/C=C/C(=O)c3ccc(C(=O)O)cc3Br)c(=O)oc2c1 [TQ Green]
